Data as given in PubChem BioAssay (NCI).
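Where inhibition never reached the appropriate level, the endpoint shown equals the highest concentration tested. Otherwise, values were interpolated linearly from a five-concentration, 48-hour dose response in 96-well plates. Abbreviation: GI50, concentration required for 50% inhibition of growth. Definition used: TGI = concentration required for complete inhibition of growth.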

What was measured:
Test in all cases: NCI anticancer screen, dose series, 48 h
[1] = system: CCRF-CEM leukemia
[2] = system: COLO 205 colon
[3] = system: EKVX NSCLC
[4] = system: K-562 leukemia
[5] = system: NCI-H226 lung
[6] = system: RXF 393 renal
[7] = system: SF-268 CNS
[8] = system: SN12C renal
[9] = system: SW-620 colon
[10] = system: U251 CNS

CC/C=C\C[C@H](F)C/C=C1/C(=O)C=C[C@@H]1C/C=C\CCCC(=O)OC
GI50 [1]: 1.38 µM
TGI [1]: 5.75 µM
GI50 [2]: 1.22 µM
TGI [2]: 2.72 µM
GI50 [3]: 5.17 µM
TGI [3]: 12 µM
GI50 [4]: 1.49 µM
TGI [4]: 6.19 µM
GI50 [5]: 22.2 µM
TGI [5]: 44.6 µM
GI50 [6]: 6.95 µM
TGI [6]: 14.3 µM
GI50 [7]: 1.86 µM
TGI [7]: 7.23 µM
GI50 [8]: 1.25 µM
TGI [8]: 3.24 µM
GI50 [9]: 1.62 µM
TGI [9]: 4.73 µM
GI50 [10]: 1.86 µM
TGI [10]: 6.57 µM

CC(=O)/C(=C/c1ccccc1)C(=O)CC(C)C
GI50 [1]: 3.96 µM
TGI [1]: > 100 µM
GI50 [2]: 16.9 µM
TGI [2]: 35.5 µM
GI50 [3]: 17.3 µM
TGI [3]: 40.9 µM
GI50 [4]: 3.77 µM
TGI [4]: > 100 µM
GI50 [5]: 25.1 µM
TGI [5]: 71.4 µM
GI50 [6]: 16.4 µM
TGI [6]: 30.5 µM
GI50 [7]: 14.3 µM
TGI [7]: 33 µM
GI50 [8]: 14.3 µM
TGI [8]: 39 µM
GI50 [9]: 2.14 µM
TGI [9]: 4.63 µM
GI50 [10]: 4.86 µM
TGI [10]: 17.7 µM

COC1C(O)CC(OC2CC(OC3CC(O[C@@H]4C(=O)c5c(cc6cc(OC7CC(OC8CC(O)C(O)C(C)O8)C(O)C(C)O7)c(C)c(O)c6c5O)CC4[C@H](OC)C(=O)O)OC(C)C3O)OC(C)C2O)OC1C (stereo not given in full)
GI50 [1]: 3.57 µM
TGI [1]: > 33.3 µM
GI50 [2]: 1.09 µM
TGI [2]: 6.9 µM
GI50 [3]: 2.31 µM
TGI [3]: > 33.3 µM
GI50 [4]: 1.96 µM
TGI [4]: > 33.3 µM
GI50 [5]: 1.15 µM
TGI [5]: 9.72 µM
GI50 [6]: 1.1 µM
TGI [6]: 4.22 µM
GI50 [7]: 2.64 µM
TGI [7]: > 33.3 µM
GI50 [8]: 1.72 µM
TGI [8]: > 33.3 µM
GI50 [9]: 2.52 µM
TGI [9]: > 33.3 µM
GI50 [10]: 1.53 µM
TGI [10]: > 33.3 µM

Cc1c2ccn(O)cc2c(C)c2c1nc1ccccc12
TGI [1]: > 60.1 µM
TGI [2]: > 100 µM
TGI [3]: > 71.3 µM
TGI [4]: > 81.4 µM
TGI [5]: 29 µM
TGI [6]: 22.6 µM
TGI [7]: 27.5 µM
TGI [8]: > 100 µM
TGI [9]: > 100 µM
TGI [10]: 16.7 µM

CCCCC(CCCCCC(CCCC)NCc1ccc2c(c1)OCO2)NCc1ccc2c(c1)OCO2 (stereo not given)
GI50 [1]: 0.524 µM
TGI [1]: 2.58 µM
GI50 [2]: 0.189 µM
TGI [2]: 0.35 µM
GI50 [3]: 1.37 µM
TGI [3]: 2.87 µM
GI50 [4]: 0.186 µM
TGI [4]: 0.46 µM
GI50 [5]: 1.91 µM
TGI [5]: 4.02 µM
GI50 [6]: 0.213 µM
TGI [6]: 0.413 µM
GI50 [7]: 0.905 µM
TGI [7]: 2.22 µM
GI50 [8]: 1.42 µM
TGI [8]: 2.96 µM
GI50 [9]: 0.206 µM
TGI [9]: 0.437 µM
GI50 [10]: 0.207 µM
TGI [10]: 0.438 µM

O=C(O)/C(Cl)=C(\Cl)C(=O)c1ccccc1
TGI [1]: > 100 µM
TGI [2]: > 100 µM
TGI [3]: > 100 µM
TGI [4]: > 100 µM
TGI [5]: > 100 µM
TGI [6]: > 100 µM
TGI [7]: > 100 µM
TGI [8]: > 100 µM
TGI [9]: > 100 µM
TGI [10]: > 100 µM

Cc1cccc(-n2c(N)c(-c3nc4ccccc4[nH]3)sc2=S)c1
TGI [1]: > 100 µM
TGI [2]: 51.8 µM
TGI [3]: 82.7 µM
TGI [4]: > 100 µM
TGI [5]: 73.9 µM
TGI [6]: 72.9 µM
TGI [7]: > 100 µM
TGI [8]: 86.9 µM
TGI [9]: 99.2 µM
TGI [10]: 43.2 µM
